Ki data for 25 compounds are collected here from patent publication US10174037B2, “Dihydropyrazolopyrimidinone compounds as PDE2 inhibitors” (Merck Sharp & Dohme Corp., priority 2015, dated 2019).

Each structure is given as a SMILES string. Like-named read-outs stand apart in the source and are kept apart here.

One assay deals with Rhesus PDE2A3 (Macaca mulatta, UniProt B3VTJ2). The experiment in a line: PDE2 fluorescence polarization (IMAP FP) assay, rhesus PDE2A3. Format: biochemical, rhesus macaque. Background: Fluorescence polarisation rises when a labelled molecule tumbles more slowly, as on binding a larger partner.
The target of another assay is human PDE2A1 (Homo sapiens (Human), UniProt O00408). Kind of assay: PDE selectivity IMAP FP assay, human PDE2A1. The settings on record: Human PDE2. It is filed as biochemical. An outline of the steps: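 IMAP fluorescence polarization assay; PDE2 substrate 50 nM FAM-cAMP containing 1000 nM cGMP, enzyme diluted for 20% substrate conversion, in 10 mM Tris HCl pH 7.2, 10 mM MgCl2, 1 mM DTT. Reaction 60 min at room temperature, stopped with IMAP binding solution; polarization read after 1 h. Ki reported.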

Setting [1] is: Lab B, read-out: Rhesus PDE2 Ki (nM) Lab B.
Setting [2] is: Lab B, read-out: Human PDE2 Ki (nM) Lab B.
Where [3] appears, read: Lab A, read-out: Rhesus PDE2 Ki (nM) Lab A.
Setting [4] is: Lab A, read-out: Human PDE2 Ki (nM) Lab A.

One may read the Ki as a measure of affinity in units of concentration, obtained from inhibition or displacement.

Chain of Rhesus PDE2A3 (B3VTJ2 1-941): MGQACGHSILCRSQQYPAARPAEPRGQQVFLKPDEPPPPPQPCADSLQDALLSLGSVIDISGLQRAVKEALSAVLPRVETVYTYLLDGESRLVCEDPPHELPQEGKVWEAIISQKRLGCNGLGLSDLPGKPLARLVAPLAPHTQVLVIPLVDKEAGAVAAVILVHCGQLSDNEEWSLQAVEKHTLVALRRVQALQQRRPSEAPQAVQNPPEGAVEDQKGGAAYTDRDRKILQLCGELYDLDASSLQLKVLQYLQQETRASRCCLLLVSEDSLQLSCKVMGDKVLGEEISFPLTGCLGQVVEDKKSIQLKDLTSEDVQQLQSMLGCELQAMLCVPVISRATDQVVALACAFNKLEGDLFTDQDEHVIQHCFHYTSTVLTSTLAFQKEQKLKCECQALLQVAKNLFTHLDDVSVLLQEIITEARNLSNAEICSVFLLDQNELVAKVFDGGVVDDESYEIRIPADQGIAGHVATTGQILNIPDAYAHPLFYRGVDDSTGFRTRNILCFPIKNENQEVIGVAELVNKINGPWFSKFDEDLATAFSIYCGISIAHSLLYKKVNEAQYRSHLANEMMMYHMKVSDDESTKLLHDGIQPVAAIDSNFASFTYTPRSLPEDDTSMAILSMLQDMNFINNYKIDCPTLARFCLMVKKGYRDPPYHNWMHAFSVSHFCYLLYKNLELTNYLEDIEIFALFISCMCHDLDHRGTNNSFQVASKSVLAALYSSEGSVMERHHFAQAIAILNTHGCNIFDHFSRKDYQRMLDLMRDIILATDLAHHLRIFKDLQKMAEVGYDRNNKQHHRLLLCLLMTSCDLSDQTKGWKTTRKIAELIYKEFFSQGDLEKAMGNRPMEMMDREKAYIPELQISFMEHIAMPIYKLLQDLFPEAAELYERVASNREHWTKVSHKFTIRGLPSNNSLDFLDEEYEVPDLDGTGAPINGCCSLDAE
Chain of human PDE2A1 (O00408 other isoform, or with tags, fused parts or gaps): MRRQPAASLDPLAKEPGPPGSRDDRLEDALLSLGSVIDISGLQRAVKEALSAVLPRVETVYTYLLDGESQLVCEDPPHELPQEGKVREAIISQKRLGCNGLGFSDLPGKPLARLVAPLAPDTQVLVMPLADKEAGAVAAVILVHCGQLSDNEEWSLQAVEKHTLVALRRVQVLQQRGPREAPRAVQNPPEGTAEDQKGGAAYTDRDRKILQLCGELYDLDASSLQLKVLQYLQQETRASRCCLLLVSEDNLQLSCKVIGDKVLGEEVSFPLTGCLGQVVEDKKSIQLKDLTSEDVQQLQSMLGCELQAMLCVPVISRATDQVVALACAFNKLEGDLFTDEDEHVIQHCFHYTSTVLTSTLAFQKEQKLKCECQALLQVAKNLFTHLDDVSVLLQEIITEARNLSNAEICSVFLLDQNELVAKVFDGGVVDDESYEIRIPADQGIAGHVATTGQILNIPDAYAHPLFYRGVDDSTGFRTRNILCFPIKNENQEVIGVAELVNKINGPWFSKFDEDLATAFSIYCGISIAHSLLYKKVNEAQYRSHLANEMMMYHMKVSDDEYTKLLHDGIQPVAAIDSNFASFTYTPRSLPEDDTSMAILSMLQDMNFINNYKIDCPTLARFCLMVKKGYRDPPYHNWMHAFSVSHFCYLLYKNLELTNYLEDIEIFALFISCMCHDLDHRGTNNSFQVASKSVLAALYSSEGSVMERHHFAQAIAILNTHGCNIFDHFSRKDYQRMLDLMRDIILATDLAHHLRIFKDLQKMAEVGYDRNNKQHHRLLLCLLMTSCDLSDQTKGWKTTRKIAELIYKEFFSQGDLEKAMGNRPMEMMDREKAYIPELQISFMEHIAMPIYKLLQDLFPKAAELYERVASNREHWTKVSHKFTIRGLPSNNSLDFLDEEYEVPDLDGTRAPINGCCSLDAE

As to `CC(C)C(c1ccc(C(C)(F)F)cc1F)n1nc(CO)c2c(=O)[nH]c(N(C)C)nc21` (single isomer, unassigned) [Example 119, (S)- or (R)-(1-(4-(1,1-Difluoroethyl)-2-fluorophenyl)-2-methylpropyl)-6-(dimethylamino)-3-(hydroxymethyl)-1H-pyrazolo[3,4-d]pyrimidin-4(5H)-one], the Ki on Rhesus PDE2A3 (setting [1]) was found to be 0.036 nM; at human PDE2A1 (setting [2]), 0.024 nM.

As to `CC(c1ccc(OC(F)(F)F)c(F)c1)n1nc(CC(F)(F)F)c2c(=O)[nH]c(O)nc21` (racemic) [Example 229, 1-(1-(3-Fluoro-4-(trifluoromethoxy)phenyl)ethyl)-6-hydroxy-3-(2,2,2-trifluoroethyl)-1H-pyrazolo[3,4-d]pyrimidin-4(5H)-one], the figures for the Ki at Rhesus PDE2A3 (setting [1]) and at human PDE2A1 (setting [2]) were 13 nM and 9.6 nM, respectively.

As to `CC(C)C(c1ccc(C(C)(F)F)c(F)c1)n1nc(CO)c2c(=O)[nH]c(N(C)C)nc21` (single isomer, unassigned) [Example 117, (R)- or (S)-1-(1-(4-(1,1-Difluoroethyl)-3-fluorophenyl)-2-methylpropyl)-6-(dimethylamino)-3-(hydroxymethyl)-1H-pyrazolo[3,4-d]pyrimidin-4(5H)-one], the Ki on Rhesus PDE2A3 (setting [1]) is 0.025 nM; at human PDE2A1 (setting [2]), 0.017 nM.

As for `O=c1[nH]c(O)nc2c1c(CO)nn2C(CF)c1ccc(C(F)(F)F)cc1` (stereo not shown) [Example 33, 1-(2-Fluoro-1-(4-(trifluoromethyl)phenyl)ethyl)-6-hydroxy-3-(hydroxymethyl)-1H-pyrazolo[3,4-d]pyrimidin-4(5H)-one], the inhibitory constant (Ki) on Rhesus PDE2A3 (setting [1]) was found to be 50 nM; on human PDE2A1 (setting [2]) it was 71 nM.

In the case of `C[C@@H](c1ccc(S(F)(F)(F)(F)F)cc1)n1nc(CF)c2c(=O)[nH]c(O)nc21` [Example 50, (S)-3-(Fluoromethyl)-6-hydroxy-1-(1-(4-(pentafluorolhio)phenyl)ethyl)-1H-pyrazolo[3,4-d]pyrimidin-4(5H)-one], the Ki at Rhesus PDE2A3 (setting [1]) amounted to 6.8 nM; at human PDE2A1 (setting [2]), 7 nM.

Consider `CCC(c1ccc(C(F)(F)F)c(F)c1)n1nc(CO)c2c(=O)[nH]c(N(C)C)nc21` (single isomer, unassigned) [Example 144, (R)- or (S)-6-(Dimethylamino)-1-(1-(3-fluoro-4-(trifluoromethyl)phenyl)propyl)-3-(hydroxymethyl)-1H-pyrazolo[3,4-d]pyrimidin-4(5H)-one], for which the Ki on Rhesus PDE2A3 (setting [1]) was found to be 3.1 nM; on human PDE2A1 (setting [2]) it was 1.7 nM.

Consider `CN(C)c1nc2c(c(CO)nn2C(c2ccc(OC(F)F)c(F)c2)C2CC2)c(=O)[nH]1` (single isomer, unassigned) [Example 122, (R)- or (S)-1-(Cyclopropyl(4-(difluoromethoxy)-3-fluorophenyl)methyl)-6-(dimethylamino)-3-(hydroxymethyl)-1H-pyrazolo[3,4-d]pyrimidin-4(5H)-one], for which the Ki at Rhesus PDE2A3 (setting [1]) was 0.37 nM; on human PDE2A1 (setting [2]) it was 0.3 nM.

In the case of `CN(C)c1nc2c(c(CO)nn2C(c2ccc(CC(F)(F)F)cc2)C2CC2)c(=O)[nH]1` (single isomer, unassigned) [Example 86, (R)- or (S)-1-(Cyclopropyl(4-(2,2,2-trifluoroethyl)phenyl)methyl)-6-(dimethylamino)-3-(hydroxymethyl)-1H-pyrazolo[3,4-d]pyrimidin-4(5H)-one], the Ki at Rhesus PDE2A3 (setting [1]) was found to be 0.91 nM; at human PDE2A1 (setting [2]) it was 0.57 nM.

Take `CC(c1ccc(C(C)(F)F)c(F)c1)n1nc(CO)c2c(=O)[nH]c(N(C)C)nc21` (single isomer, unassigned) [Example 106, (R)- or (S)-1-(1-(4-(1,1-Difluoroethyl)-3-fluorophenyl)ethyl)-6-(dimethylamino)-3-(hydroxymethyl)-1H-pyrazolo[3,4-d]pyrimidin-4(5H)-one]: the figures for the Ki on Rhesus PDE2A3 (setting [1]) and at human PDE2A1 (setting [2]) were 6.2 nM and 3.6 nM, respectively.

For `CC(C)C(c1ccc(C(F)(F)F)cc1)n1nc(CF)c2c(=O)[nH]c(N(C)C)nc21` (single isomer, unassigned) [Example 163], the Ki on Rhesus PDE2A3 (setting [1]) is 0.07 nM; on human PDE2A1 (setting [2]), 0.056 nM.

Consider `CN(C)c1nc2c(c(CO)nn2C(c2ccc(OC(F)F)cc2)C2CC2)c(=O)[nH]1` (single isomer, unassigned) [Example 129, (S)- or (R)-(Cyclopropyl(4-(difluoromethoxy)phenyl)methyl)-6-(dimethylamino)-3-(hydroxymethyl)-1H-pyrazolo[3,4-d]pyrimidin-4(5H)-one], for which the figures for the Ki on Rhesus PDE2A3 (setting [1]) and on human PDE2A1 (setting [2]) were 1 nM and 0.55 nM, respectively.

Consider `CC(c1ccc(C(F)(F)F)cc1)n1nc(C(F)(F)C(F)(F)F)c2c(=O)[nH]c(O)nc21` (single isomer, unassigned) [Example 266, (R)- or (S)-6-Hydroxy-3-(perfluoroethyl)-1-(1-(4-(trifluoromethyl)phenyl)ethyl)-1H-pyrazolo[3,4-d]pyrimidin-4(5H)-one], for which the Ki at Rhesus PDE2A3 (setting [1]) came to 14 nM; on human PDE2A1 (setting [2]), 13 nM.

`CCC(c1ccc(C(C)(F)F)cc1)n1nc(CF)c2c(=O)[nH]c(N(C)C)nc21` (single isomer, unassigned) [Example 205, (S)- or (R)-1-(1-(4-(1,1-Difluoroethyl)phenyl)propyl)-6-(dimethylamino)-3-(fluoromethyl)-1H-pyrazolo[3,4-d]pyrimidin-4(5H)-one]: the Ki on Rhesus PDE2A3 (setting [1]) worked out at 0.072 nM; at human PDE2A1 (setting [2]) it was 0.038 nM.

For `CC(c1ccc(C(C)(C)C)cc1)n1nc(CO)c2c(=O)[nH]c(O)nc21` (stereo not shown) [Example 7, 1-(1-(4-tert-Butylphenyl)ethyl)-6-hydroxy-3-(hydroxymethyl)-1H-pyrazolo[3,4-d]pyrimidin-4(5H)-one], the Ki on Rhesus PDE2A3 (setting [3]) amounted to 51 nM; on Rhesus PDE2A3 (setting [1]), 64 nM; on human PDE2A1 (setting [4]), 27 nM; on human PDE2A1 (setting [2]), 59 nM.

On to `CC(C)C(c1ccc(C(F)(F)F)c(F)c1)n1nc(CO)c2c(=O)[nH]c(O)nc21` (single isomer, unassigned) [Example 27, (R)- or (S)-1-(1-(3-Fluoro-4-(trifluoromethyl)phenyl)-2-methylpropyl)-6-hydroxy-3-(hydroxymethyl)-1H-pyrazolo[3,4-d]pyrimidin-4(5H)-one], for which the Ki on Rhesus PDE2A3 (setting [1]) is 5.2 nM; on human PDE2A1 (setting [2]), 7 nM.

With `CN(C)c1nc2c(c(CO)nn2C(c2ccc(C(F)(F)F)cc2F)C2CC2)c(=O)[nH]1` (single isomer, unassigned) [Example 134, (R)- or (S)-1-(Cyclopropyl(2-fluoro-4-(trifluoromethyl)phenyl)methyl)-6-(dimethylamino)-3-(hydroxymethyl)-1H-pyrazolo[3,4-d]pyrimidin-4(5H)-one], the Ki at Rhesus PDE2A3 (setting [1]) worked out at 0.05 nM; at human PDE2A1 (setting [2]), 0.047 nM.

As to `N#CCc1nn(C(c2ccc(C(F)(F)F)cc2)C2CC2)c2nc(O)[nH]c(=O)c12` (single isomer, unassigned) [Example 296], the Ki on Rhesus PDE2A3 (setting [1]) worked out at 8.6 nM; at human PDE2A1 (setting [2]), 7.3 nM.

As to `CC(C)(C)c1ccc(C(C2CC2)n2nc(CC(F)(F)F)c3c(=O)[nH]c(O)nc32)cc1` (single isomer, unassigned) [Example 250, (R)- or (S)-1-((4-tert-Butylphenyl)(cyclopropyl)methyl)-6-hydroxy-3-(2,2,2-trifluoroethyl)-1H-pyrazolo(3,4-d]pyrimidin-4(5H)-one], the Ki at Rhesus PDE2A3 (setting [1]) was determined as 26 nM; at human PDE2A1 (setting [2]) it was 27 nM.

`CC(c1ccc(C(C)(C)C)cc1)n1nc(CF)c2c(=O)[nH]c(N(C)C)nc21` (single isomer, unassigned) [Example 170, (R)- or (S)-1-(1-(4-tert-Butylphenyl(ethyl)-6-(dimethylamino)-3-(fluoromethyl)-1H-pyrazolo[3,4-d]pyrimidin-4(5H)-one]: the inhibition constant (Ki) on Rhesus PDE2A3 (setting [1]) stood at 11 nM; on human PDE2A1 (setting [2]) it was 7.6 nM.

Regarding `CC(c1ccc(C(F)(F)F)c(F)c1)n1nc(CF)c2c(=O)[nH]c(N(C)C)nc21` (single isomer, unassigned) [Example 169, (S)- or (R)-6-(Dimethylamino)-1-(1-(3-fluoro-4-(trifluoromethyl)phenyl)ethyl)-3-(fluoromethyl)-1H-pyrazolo[3,4-d]pyrimidin-4(5H)-one], the values for the inhibitory constant (Ki) on Rhesus PDE2A3 (setting [1]) and at human PDE2A1 (setting [2]) were 0.2 nM and 0.099 nM, respectively.

As for `CC(c1ccc(C(F)(F)F)cc1)n1nc(C(F)(F)F)c2c(=O)[nH]c(O)nc21` (single isomer, unassigned) [Example 254, (R)- or (S)-6-Hydroxy-3-(trifluoromethyl)-1-(1-(4-(trifluoromethyl)phenyl)ethyl)-1H-pyrazolo[3,4-d]pyrimidin-4(5H)-one], the figures for the Ki on Rhesus PDE2A3 (setting [1]) and at human PDE2A1 (setting [2]) were 102 nM and 121 nM, respectively.

Take `CN(C)c1nc2c(c(CO)nn2C(c2ccc(OC(F)F)cc2)C2CC2)c(=O)[nH]1` (single isomer, unassigned) [Example 128, (R)- or (S)-1-(Cyclopropyl(4-(difluoromethoxy)phenyl)methyl)-6-(dimethylamino)-3-(hydroxymethyl)-1H-pyrazolo[3,4-d]pyrimidin-4(5H)-one]: the Ki came out at 0.55 nM at Rhesus PDE2A3 (setting [1]) and 0.5 nM at human PDE2A1 (setting [2]).

As for `CC(C)C(c1ccc(C(F)F)c(F)c1)n1nc(CO)c2c(=O)[nH]c(N(C)C)nc21` (single isomer, unassigned) [Example 114], the Ki was 0.71 nM on Rhesus PDE2A3 (setting [1]) and 0.79 nM on human PDE2A1 (setting [2]).

With `CC(c1ccc(C(F)(F)F)cc1)n1nc(CC(F)(F)F)c2c(=O)[nH]c(O)nc21` (single isomer, unassigned) [Example 256, (R)- or (S)-6-Hydroxy-3-(2,2,2-trifluoroethyl)-1-{1-[4-(trifluoromethyl)phenyl]ethyl}-1,5-dihydro-4H-pyrazolo[3,4-d]pyrimidin-4-one], the Ki at Rhesus PDE2A3 (setting [3]) was 166 nM; at human PDE2A1 (setting [4]) it was 126 nM.

Regarding `CC(C)C(c1ccc(C(F)(F)F)cc1)n1nc(CF)c2c(=O)[nH]c(N(C)C)nc21` (single isomer, unassigned) [Example 162], the Ki at Rhesus PDE2A3 (setting [1]) came to 0.63 nM; on human PDE2A1 (setting [2]) it was 0.54 nM.
